Measured values as given in US20240358692A1, “TREATMENT OF SCLERODERMA” (Aisa Pharma, Inc., priority 2023, published 2024).

Tests used:
participants with SSc-RP [1] = assay: Frequency of weekly symptomatic RP attacks (patient diary), Phase 2a Part A; assay type: in vivo, human; settings: ITT Part A
Description: Percent change from baseline evaluation for frequency of weekly RP attacks were or will be used as the primary efficacy variable. The sponsor-developed participant-informed diary will be used to record data. Frequency of weekly RP attacks is defined as the total number of RP attacks divided by the number of days with available diary data within the last 7 days of each dosing period then multiplied by 7. Total number of RP attacks during the last 7 days of screening period divided by the number of days with available data then multiplied by 7 will be used as baseline for the analysis of all periods. The variable will be calculated as follows: […]
Percent change from baseline evaluation for frequency of weekly RP attacks was and will be the primary efficacy endpoint. Frequency of weekly RP attacks is defined as the total number of RP attacks divided by the number of days with available diary data within the last 7 days of each dosing period then multiplied by 7. Total number of RP attacks during the last 7 days of screening period divided by the number of days with available data then multiplied by 7 will be used as baseline for the analysis of all periods.

participants with SSc-RP [2] = assay: SHAQ - Alternative Disability Index; assay type: in vivo, human
Description: The SHAQ is used to calculate a Disability Index to assess the participant qualify of life. The eight categories assessed by the Disability Index are 1) dressing and grooming, 2) arising, 3) eating, 4) walking, 5) hygiene, 6) reach, 7) grip, and 8) common daily activities. For each of these categories, patients report the amount of difficulty they have in performing two or three specific activities.
There are four possible responses for the Disability Index questions: • Without any difficulty=0 • With some difficulty=1 • With much difficulty=2 • Unable to do=3 • The highest score reported by the patient for any component question of the eight categories determines the score for that category. • If a component question is left blank or the response is too ambiguous to assign a score, then the score for that category is determined by the remaining completed question(s). • If all component questions are blank or if more than one answer is given, then follow up with the respondent is required. • If the respondent's mark is between the response columns, then move it to the closest one. If it's directly between the two, move it to the higher one.
The aid and device variables are not used to calculate the alternative disability index; it is calculated by adding the scores for each of the categories and dividing by the number of categories answered. This gives a score in the 0 to 3 range.

[3] = Tadalafil 5 mg, n=1, Excluding Outliers
[4] = Tadalafil 5 mg, n=2, by Baseline RCS, second block (RCS >5.0)
[5] = tadalafil 5 mg daily, n=1, excluding outliers, second Baseline RCS subgroup, last 7 days of dosing
[6] = Modified ITT Population-Part A, Day 12, dose cilnidipine 10 mg, tadalafil 5 mg, alone or combined as labelled
[7] = Modified ITT Population-Part A, dose cilnidipine 10 mg, tadalafil 5 mg, alone or combined as labelled
[8] = Tadalafil 5 mg, SSc patients, PP, Part A

CN1CC(=O)N2[C@H](c3ccc4c(c3)OCO4)c3[nH]c4ccccc4c3C[C@@H]2C1=O [Tadalafil]
Weekly Symptomatic RP Attacks Change from Baseline, Mean (participants with SSc-RP [1]; [3]): 6.00
Weekly Symptomatic RP Attacks Percent Change from Baseline, Mean (participants with SSc-RP [1]; [3]): 50.00%
Weekly Symptomatic RP Attacks, Mean (participants with SSc-RP [1]; [3]): 18.00
Weekly Symptomatic RP Attacks Change from Baseline, Mean (participants with SSc-RP [1]; [4]): 4.50
Weekly Symptomatic RP Attacks Percent Change from Baseline, Mean (participants with SSc-RP [1]; [4]): 62.50%
Weekly Symptomatic RP Attacks, Mean (participants with SSc-RP [1]; [4]): 12.50
Weekly Symptomatic RP Attacks Change from Baseline, Mean (participants with SSc-RP [1]; [5]): 6.00
Weekly Symptomatic RP Attacks Percent Change from Baseline, Mean (participants with SSc-RP [1]; [5]): 50.00%
Weekly Symptomatic RP Attacks, Mean (participants with SSc-RP [1]; [5]): 18.00
alternative disability index, Change from Baseline, Mean (participants with SSc-RP [2]; [6]): −0.094
alternative disability index, Change from Baseline, Median (participants with SSc-RP [2]; [6]): −0.125
alternative disability index, Percent Change from Baseline, Mean (participants with SSc-RP [2]; [6]): −43.70%
alternative disability index, Percent Change from Baseline, Median (participants with SSc-RP [2]; [6]): −20.00%
alternative disability index, In Clinic Visit (Day 12), Mean (participants with SSc-RP [2]; [7]): 0.375
alternative disability index, In Clinic Visit (Day 12), Median (participants with SSc-RP [2]; [7]): 0.250
SHAQ Alternative Disability Index, Change from Baseline, Max (participants with SSc-RP [2]; [8]): 0.00
SHAQ Alternative Disability Index, Change from Baseline, Mean (participants with SSc-RP [2]; [8]): −0.094
SHAQ Alternative Disability Index, Change from Baseline, Median (participants with SSc-RP [2]; [8]): −0.125
SHAQ Alternative Disability Index, Change from Baseline, Min (participants with SSc-RP [2]; [8]): −0.13,
SHAQ Alternative Disability Index, Change from Baseline, Q3 (participants with SSc-RP [2]; [8]): −0.063
SHAQ Alternative Disability Index, Day 12, Max (participants with SSc-RP [2]; [8]): 1.00
SHAQ Alternative Disability Index, Day 12, Mean (participants with SSc-RP [2]; [8]): 0.375
SHAQ Alternative Disability Index, Day 12, Median (participants with SSc-RP [2]; [8]): 0.250
SHAQ Alternative Disability Index, Day 12, Min (participants with SSc-RP [2]; [8]): 0.00,
SHAQ Alternative Disability Index, Day 12, Q1 (participants with SSc-RP [2]; [8]): 0.000,
SHAQ Alternative Disability Index, Day 12, Q3 (participants with SSc-RP [2]; [8]): 0.750
SHAQ Alternative Disability Index, Percent Change from Baseline, Max (participants with SSc-RP [2]; [8]): −11.1
SHAQ Alternative Disability Index, Percent Change from Baseline, Mean (participants with SSc-RP [2]; [8]): −43.70
SHAQ Alternative Disability Index, Percent Change from Baseline, Median (participants with SSc-RP [2]; [8]): −20.00
SHAQ Alternative Disability Index, Percent Change from Baseline, Min (participants with SSc-RP [2]; [8]): −100.0,
SHAQ Alternative Disability Index, Percent Change from Baseline, Q1 (participants with SSc-RP [2]; [8]): −100.00,
SHAQ Alternative Disability Index, Percent Change from Baseline, Q3 (participants with SSc-RP [2]; [8]): −11.11
